Data as given in US20050267016A1, “CD-10 activated prodrug compounds” (priority 2001, published 2005).
pIC50: −log10 of the molar value. Like-named read-outs stand apart in the source and are kept apart here.

How the values were obtained:
[1] = tested on: LNCaP cell homogenate; assay: Hydrolysis by cultured human cell homogenates; type: biochemical
Method: (§1) In addition, 1 μM phosphoramidon, a CD10 inhibitor was included in incubations with LNCaP cell homogenate. To estimate specific activity protein content was estimated in the soluble portion of the homogenates. Results expressed as protein specific activity (FIG. 12) indicate that LNCaP cells which are known to contain CD10 show the greatest Suc-Ile-Ala-Leu-Dox hydrolyzing activity.

[2] = tested on: PC-3 cell homogenate; assay: Hydrolysis by cultured human cell homogenates; type: biochemical; conditions: 12.5 μg/mL, up to 1 hr, 37° C., pH 7.2
Method: as §1

[3] = tested on: HL-60 xenograft homogenate; assay: Hydrolysis by mouse tumor xenograft homogenates; type: biochemical; conditions: 12.5 μg/mL, up to 1 hr, 37° C.
Method: (§2) Soluble protein was measured and results are reported as protein specific activity. The results, illustrated in FIG. 13, indicate the LNCaP cells contain the highest Suc-Ile-Ala-Leu-Dox hydrolyzing activity while HL-60 cells show no Suc-Ile-Ala-Leu-Dox hydrolyzing activity.

[4] = tested on: LNCaP xenograft homogenate; assay: Hydrolysis by mouse tumor xenograft homogenates; type: biochemical; conditions: 12.5 μg/mL, up to 1 hr, 37° C.
Method: as §2

[5] = tested on: 22 RV1 (prostate carcinoma) cells; assay: 3H-thymidine incorporation, 22RV1 cells; type: cell-based; conditions: Homo sapiens, Table 6, 48 hours, read-out: IC50 22RV1 CD10−PSA+
Method: Adherent cells, LNCaP (prostate carcinoma), PC-3 (prostate carcinoma) and 22 RV1 (prostate carcinoma), were cultured in DMEM media containing 10% heat inactivated fetal calf serum (FCS). On the day of the study the cells were detached from the plate with a trypsin solution. The collected cells were washed and resuspended at a concentration of 0.25×10^6 cells/ml in DMEM containing 10% FCS. 100 μl of cell suspension were added to 96 well plates and the plates were incubated for 3 hours to allow the cells to adhere. […] The plates were then incubated for 24 hours, pulsed with 1:0 μl of a 100 μCi/ml ^3H-thymidine and incubated for an additional 24 hours (total incubation time 48 hours). The plates were harvested using a 96 well Harvester (Packard Instruments) and counted on a Packard Top Count Counter. Four parameter logistic curves were fitted to the ^3H-thymidine incorporation as a function of drug molarity using Prism software to determine IC50 values.

[6] = tested on: human colon carcinoma (HT-29) xenograft; conditions: 4.0 mg/kg every 7 days for 5 doses
Source text: Healthy young male nude mice were subcutaneously injected with 5 million of HT-29 cells.

[7] = tested on: HL60 cells (CD10 negative); assay: Proliferation of HL60 cells with supernatant from compound-treated CHO cells; type: cell-based; conditions: Homo sapiens
Source text: Confirmation of the data is shown when Suc-βAla-Leu-Ala-Leu-Dox was compared to Suc-Leu-Ala-Gly-Dox and the results are consistent with the fact that Suc-βAla-Leu-Ala-Leu is cleaved by CD10 transfected cells and not by the parental cell lines.

[8] = tested on: colorectal carcinoma LS174t xenograft; conditions: tolerated dose 3 mg/kg, same dosing regimen; cited from earlier work
[9] = in vivo; conditions: female, ICR, mouse, iv, 10 umol/kg
Method: (§3) Plasma was obtained from three individual animals in each group at 5 minutes, 1, 2, 4, or 6 hr.

[10] = tested on: normal mice; conditions: mouse, in vivo; cited from earlier work
[11] = tested on: CD10 transfected CHO cells, Clone #5; assay: 3H thymidine proliferation assay, CD10 transfected CHO Clone #5; conditions: Cricetulus griseus, read-out: IC50 Clone #5
Method: The fully assembled coding region was sub-cloned into a mammalian expression vector, downstream of the hCMV-MIE promoter. DNA sequence analysis confirmed sequence identity with the coding sequence of human CD10 (Genbank accession number Y00811). The expression plasmid was linearized and stably transfected into CHO—S cells. CD10 expressing transfectant clones were selected under 500 ug/mL of hygromycin and screened by flow cytometry for cell-surface CD10 expression using a commercially available anti-CD10-FITC antibody.

[12] = Second single dose Maximum Tolerated Dose (SD-MTD) study, 49 days; conditions: mouse, in vivo, iv
Method: In a second single dose Maximum Tolerated Dose (SD-MTD) study, groups of five normal ICR mice were administered intravenous bolus doses of Suc-βAla-Leu-Ala-Leu-Dox. The mice were observed daily for 49 days and body weights measured twice weekly.
In a second single dose Maximum Tolerated Dose (SD-MTD) study, groups of five normal ICR mice were administered intravenous bolus doses of Suc-Leu-Ala-Leu-Dox. The mice were observed daily for 49 days and body weights measured twice weekly.
In a second single dose Maximum Tolerated Dose (SD-MTD) study, groups of five normal ICR mice were administered intravenously bolus doses of Suc-Ile-Ala-Leu-Dox. The mice were observed daily for 49 days and body weights measured twice weekly.
In a second single dose Maximum Tolerated Dose (SD-MTD) study, groups of five normal ICR mice were administered intravenous bolus doses of Suc-βAla-Ile-Ala-Leu-Dox. The mice were observed daily for 49 days and body weights measured twice weekly.

[13] = tested on: CD10 transfected CHO cells (clone 8); assay: Conversion to Leu-Dox or Gly-Dox in cell supernatants, CD10 transfected CHO; type: cell-based, Chinese Hamster; conditions: Clone 8 (CD10 transfected), 10 μM, 37° C.
Method: To directly ask the question of whether the CD10 expressing cells were capable of cleaving the prodrug, supernatants from CD10 transfected or parental CHO cells treated with the compounds were collected. […] After incubation for 1, 4, and 24 hours, an aliquot of each supernatant was transferred to a 96-well plate and frozen at −20° C. Samples were subsequently thawed and analyzed by reversed phase HPLC (4.6×50 mm 21 TSK Super-ODS column) with fluorescence detection after dilution with 3 volumes of acetonitrile, removal of precipitate by centrifugation, and further dilution into 3 volumes of water. When incubated with Suc-βAla-Leu-Ala-Leu-Dox, there was no detectable metabolism to Leu-Dox observed with the parental cell line while clone 8 (CD10 transfected) generated significant levels of Leu-Dox from Suc-βAla-Leu-Ala-Leu-Dox (Table 27).

[14] = mouse, in vivo, iv, 100 umol/kg
Method: as §3

[15] = mouse, in vivo, iv, 100 umol/kg; remark: listed apart in the source
Method: as §3

SMILES: CC[C@H](C)[C@H](NC(=O)CCC(=O)O)C(=O)N[C@@H](C)C(=O)N[C@@H](CC(C)C)C(=O)N[C@H]1C[C@H](O[C@H]2C[C@](O)(C(=O)CO)Cc3c(O)c4c(c(O)c32)C(=O)c2c(OC)cccc2C4=O)O[C@@H](C)[C@H]1O [Suc-Ile-Ala-Leu-Dox]
- hydrolyzing activity (protein specific activity) ([1]; LNCaP cell homogenate with 1 μM phosphoramidon): inhibited by phosphoramidon
- hydrolyzing activity (protein specific activity) ([1]; LNCaP cell homogenate, 12.5 μg/mL, up to 1 hr, 37° C., pH 7.2): greatest
- hydrolysis by homogenate [2]: not
- hydrolyzing activity (protein specific activity) [3]: no
- hydrolyzing activity (protein specific activity) [4]: highest

SMILES: COc1cccc2c1C(=O)c1c(O)c3c(c(O)c1C2=O)C[C@@](O)(C(=O)CO)C[C@@H]3O[C@H]1C[C@H](N)[C@H](O)[C@H](C)O1 [Doxorubicin, reference compound]
- pIC50 [5]: 7.52
- % TGI (Day 14, mean) [6]: 9.3%
- % TGI (Day 25, median) [6]: 30.9%
- Calculated Mean Day of Survival [6]: 30.0 ± 3.7 days
- Extension of Mean Day of Survival over controls [6]: 16.7%
- Mean Tumor Weight at Day 14 [6]: 665 ± 103 mg
- Median Tumor Weight at Day 25 [6]: 1046 mg
- Number of Long Term Survivors [6]: 0/10
- Calculated Mean Day of Survival ([6]; listed as doxorubicin): 30 days
- pIC50 ([7]; HL-60, 24 h, HL60 fresh compound, 24 hours): 6.79
- pIC50 ([7]; HL-60, 24 h, supernatant of Parental CHO, collected 24 hours after exposure): 6.55
- pIC50 ([7]; HL-60, supernatant of Clone 8 (CD10 Pos.)): 6.31
- pIC50 ([7]; HL-60, supernatant of Clone 10 (CD10 Neg.)): 6.38
- pIC50 ([7]; HL-60, supernatant of Clone DB4 (CD10 Pos.)): 6.31
- efficacy in LS174t model [8]: historically ineffective
- AUC(0-t) [9]: 3.3 µM·h
- MTD of doxorubicin alone, estimated from the standard safe efficacious dose [10]: 4 mg/kg
- pIC50 [11]: 6.09

SMILES: COc1cccc2c1C(=O)c1c(O)c3c(c(O)c1C2=O)C[C@@](O)(C(=O)CO)C[C@@H]3O[C@H]1C[C@H](NC(=O)[C@H](CC(C)C)NC(=O)[C@H](C)NC(=O)[C@H](CC(C)C)NC(=O)CCNC(=O)CCC(=O)O)[C@H](O)[C@H](C)O1 [Suc-βAla-Leu-Ala-Leu-Dox]
- MTD [12]: 50 mg/kg
- Conversion rate to Leu-Dox or Gly-Dox [13]: 0.30 mM/h
- Percent Conversion/Hour to Leu-Dox or Gly-Dox [13]: 3.00 Percent Conversion/Hour
- AUC(0-t) [14]: 806 µM·h
- Plasma AUC0-6 hr of AL-Dox or AG-Dox* [15]: 3.2 µM·h
- Plasma AUC0-6 hr of L-Dox or G-Dox* [15]: 40 µM·h
